Results as given in ChEMBL document CHEMBL5608166, “Current therapy in amyotrophic lateral sclerosis (ALS): A review on past and future therapeutic strategies” (Eur J Med Chem, 2024).

Molecular target: Tau-tubulin kinase 2 (Homo sapiens, UniProt Q6IQ55)
Experiment: Inhibition of TTBK2 (unknown origin)

Tau-tubulin kinase 2, sequence (Q6IQ55 whole entry): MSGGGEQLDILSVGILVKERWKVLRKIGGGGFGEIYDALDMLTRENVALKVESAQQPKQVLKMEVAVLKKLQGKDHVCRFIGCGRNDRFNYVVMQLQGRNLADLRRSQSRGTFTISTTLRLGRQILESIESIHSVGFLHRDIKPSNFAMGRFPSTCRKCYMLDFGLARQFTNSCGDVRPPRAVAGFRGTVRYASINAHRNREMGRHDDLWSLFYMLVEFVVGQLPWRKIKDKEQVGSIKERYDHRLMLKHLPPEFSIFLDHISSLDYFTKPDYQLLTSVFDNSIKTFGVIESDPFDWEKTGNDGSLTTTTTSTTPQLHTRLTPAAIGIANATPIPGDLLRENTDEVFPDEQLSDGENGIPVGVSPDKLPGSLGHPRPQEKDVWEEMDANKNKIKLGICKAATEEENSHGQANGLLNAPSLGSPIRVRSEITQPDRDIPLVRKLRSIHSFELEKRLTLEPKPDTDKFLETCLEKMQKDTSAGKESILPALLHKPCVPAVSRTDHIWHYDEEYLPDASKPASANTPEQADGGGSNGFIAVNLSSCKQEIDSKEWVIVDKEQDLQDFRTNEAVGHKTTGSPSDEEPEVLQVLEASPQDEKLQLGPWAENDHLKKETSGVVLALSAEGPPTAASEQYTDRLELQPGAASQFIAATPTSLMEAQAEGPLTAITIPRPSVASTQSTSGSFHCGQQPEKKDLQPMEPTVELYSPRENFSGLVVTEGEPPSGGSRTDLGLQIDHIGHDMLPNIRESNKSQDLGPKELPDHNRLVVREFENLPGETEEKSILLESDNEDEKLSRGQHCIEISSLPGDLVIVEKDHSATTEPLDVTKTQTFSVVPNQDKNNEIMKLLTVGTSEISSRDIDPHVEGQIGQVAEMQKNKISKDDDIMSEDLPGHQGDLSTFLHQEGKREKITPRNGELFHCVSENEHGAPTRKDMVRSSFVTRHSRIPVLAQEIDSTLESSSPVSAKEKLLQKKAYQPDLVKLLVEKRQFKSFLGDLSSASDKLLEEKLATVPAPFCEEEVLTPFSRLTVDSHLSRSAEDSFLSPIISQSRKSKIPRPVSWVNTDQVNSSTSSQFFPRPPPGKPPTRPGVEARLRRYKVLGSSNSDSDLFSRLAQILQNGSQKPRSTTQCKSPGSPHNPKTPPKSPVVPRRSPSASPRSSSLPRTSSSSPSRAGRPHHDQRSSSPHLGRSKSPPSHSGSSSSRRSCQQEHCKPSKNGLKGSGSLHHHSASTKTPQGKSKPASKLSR

## CC1(N)CCN(Cc2ccn3ncnc(Nc4cc(O)cc(Br)c4)c23)CC1
  IC50: 1.6 nM
